Earlier results as cited in PMC8966651, “PKPD Modeling of the Inoculum Effect of Acinetobacter baumannii on Polymyxin B in vivo” (Frontiers in Pharmacology, 2022).
Read-outs that look alike come from different tables or passages of the source.

Experiments:
E. coli [1] = conditions: cited from earlier work; for E. coli MICs at initial inoculum 10^7 CFU/ml compared to 10^5 CFU/ml: in vitro
Text: The clinical relevance of in vitro IE has been questioned in previous studies ([Maglio et al., 2004]; [Maglio et al., 2005]; [Fantin et al., 2019]).

E. coli [2] = conditions: murine thigh infection model; ref de Araujo et al., 2011; cited from earlier work
Text: An innovative aspect of this study was the refinement of a PKPD model, based on the model developed after in vitro TK experiments conducted with A. baumannii and PMB ([Akrong et al., 2021]). […] The different growth behavior between in vitro and in vivo has been associated in literature ...

A. baumannii = conditions: initial inoculum of A. baumannii increased from 10^7 to 10^8 CFU/lung; ref Lin et al., 2018; cited from earlier work
Text: Yet the IE of A. baumannii on polymyxins in vivo remains to be investigated. […] But IE was only investigated on rare occasions in vivo, with antibiotics such as marbofloxacin ([Ferran et al., 2009]), piperacillin-tazobatam ([Harada et al., 2014]), ertapenem ([Maglio et al., 2005]), meropenem ([Mizunaga et al., 2005]) or colistin ([Fantin et al., 2019]) against various Gram-negative pathogens such as E. coli, K. pneumoniae ...

CO/N=C(\C(=O)N[C@@H]1C(=O)N2C(C(=O)[O-])=C(C[N+]3(C)CCCC3)CS[C@H]12)c1csc(N)n1 [cefepime]
E. coli MICs at initial inoculum 10^7 CFU/ml compared to 10^5 CFU/ml (E. coli [1]; ref Maglio et al., 2004): elevations of E. coli MICs
inoculum effect (IE) in vivo (E. coli [1]; neutropenic mouse thigh infection model, ref Maglio et al., 2004): no IE was observed in vivo

C[C@@H](O)[C@H]1C(=O)N2C(C(=O)O)=C(S[C@@H]3CN[C@H](C(=O)Nc4cccc(C(=O)O)c4)C3)[C@H](C)[C@H]12 [ertapenem]
E. coli MICs at initial inoculum 10^7 CFU/ml compared to 10^5 CFU/ml (E. coli [1]; ref Maglio et al., 2005): elevations of E. coli MICs
inoculum effect (IE) in vivo (E. coli [1]; neutropenic mouse thigh infection model, ref Maglio et al., 2005): no IE was observed in vivo

CCN1CCN(C(=O)N[C@@H](C(=O)N[C@@H]2C(=O)N3[C@@H]2SC(C)(C)[C@@H]3C(=O)O)c2ccccc2)C(=O)C1=O [piperacillin]
maximum killing effect in vivo as compared to in vitro (E. coli [2]): two times smaller

colistin
inoculum effect (IE) in vivo (E. coli [1]; mice infected with E. coli, ref Fantin et al., 2019): observed an in vivo IE
efficacy of nebulized colistin with increasing inoculum (A. baumannii): decrease in the efficacy
